Read-outs that look alike come from different tables or passages of the source.
Assays:
[1] = tested on: apomorphine-induced gnawing; assay: Antiapomorphine activity (apomorphine-induced gnawing) in the rat; type: in vivo; details: for ED50: Rattus norvegicus, po, per os
Description: A number of the compounds of the present invention were screened in parallel with metoclopramide for potential anti-emetic effects against apomorphine-induced gnawing in the rat and as local anaesthetics on the rat sciatic nerve (Table I).
*Antiapomorphine activity in rat scored as […]

[2] = tested on: electrically induced convulsions; assay: Electrically induced convulsions in mice; type: in vivo
[3] = tested on: convulsions induced by strychnine; assay: Strychnine-induced convulsions in the mouse; type: in vivo
writhing syndrome = assay: Writhing syndrome induced by intra-peritoneal acetic acid in mice; type: in vivo; details: 300 mg/kg per os
Description: The HCl-Clebopride salt does have antipyretic and analgesic activity.

[4] = Metabolism and pharmacokinetics in the rat; type: in vivo
[5] = Metabolism and pharmacokinetics in the rabbit; type: in vivo
[6] = tested on: gastric emptying time in humans; assay: Gastric emptying in humans, evaluated by radiologist; type: in vivo
Description: The evaluation was based on the subjective opinion of the radiologist in terms of the time required for the appearance of peristaltic waves and their capacity to evacuate. the stomach, according to the following scheme:

in vivo = details: rat, po
oxotremorine = assay: Oxotremorine test in mice; details: mice previously treated with sub-threshold dose of oxotremorine
gastric emptying = assay: Decrease of gastric emptying time in rats; type: in vivo, rat; details: compared with metoclopramide
[7] = tested on: apomorphine-induced vomiting; assay: Apomorphine-induced vomiting in the dog; type: in vivo
[8] = Local anaesthetic activity in mice; type: in vivo; details: compared with metoclopramide or procaine
[9] = tested on: convulsions induced by leptazol; assay: Leptazol-induced convulsions in the mouse; type: in vivo
[10] = tested on: cardiovascular and respiratory systems; assay: Cardiovascular and respiratory effects in cats anaesthetized with chloralose; type: in vivo
Description: HCl-Clebopride salt has weak effects on the cardiovascular and respiratory systems.

autonomic nervous system = assay: Effect on the autonomic nervous system; details: in vivo
inflammation = assay: Anti-inflammatory activity; details: in vivo
parasympathetic system = assay: Parasympatholytic activity; details: in vivo
[11] = Therapeutic effect and side effects in humans; type: in vivo; details: suitable doses
Description: They may be used in doses of from 0.1 to 1000 mg per day for the treatment of nausea and vomiting due to gastrointestinal disorders, congestive heart failure, post operative conditions, etc., other gastrointestinal tract disorders such as dyspepsia, flatulence, bile regurgitations, hiatus hernia, peptic ulcer, reflux aerophagitis, gastritis, duodenitis and cholethiasis, and as an adjunt to radiography of the gastrointestinal tract and for overcoming gastrointestinal stasis for diagnostic or therapeutic purposes and a variety of conditions affecting the central nervous system such as acute and chronic psychoses, maniacal psychosis, schizophrenias, serious disturbances of behavior and non-melancholic depressive state and migraine.
A number of the instant compounds, particularly the hydrogen chloride, malate and methanesulfonate salts of Clebopride have been extensively tested in humans to determine maximum dosages and the therapeutic effects of the compounds. These compounds have been administered to humans orally and parenterally.
Dosages of between 0.1 and 30 mg per day have been shown useful depending upon the length of treatment and therapeutic effect desired.

[12] = tested on: spontaneous motor activity; assay: Spontaneous motor activity in the mouse
incoordination = assay: Incoordination on accelerating rota-rod in the mouse
[13] = 2 mg, compared with 20 mg of metoclopramide
[14] = cats, slow intravenous infusion 1 mg/kg/min. to total 10 mg/kg

With `COc1cc(N)c(Cl)cc1C(=O)NC1CCN(Cc2ccccc2)CC1` [Clebopride, N-[4'-(1'-benzyl)-piperidyl]-2-methoxy-4-amino-5-chloro-benzamide] the ED50 ([1]; rats, Table III, read-out: Antiapomorphine Activity, Rats, ED50 (95% confidence limits)) was 1.85 mg/kg, the “potency in preventing electrically induced convulsions” value ([2]; mice) was “somewhat more potent than metoclopramide” and the “inhibition of convulsions induced by strychnine” value [3] was “neither Clebopride nor metoclopramide appear to inhibit convulsions induced by strychnine”. The “inhibition of writhing syndrome” value (writhing syndrome) was “almost completely inhibited the writhing syndrome”, the “pharmacokinetics after intravenous administration” value ([4]; intravenous) was “follows a similar pattern in both species” and the “pharmacokinetics after intravenous administration” value ([5]; intravenous) was “follows a similar pattern in both species”. For the same compound, the “No. of Patients with + (no effect)” value ([6]; 0.2 mg by mouth, 6 patients) was 0, the “No. of Patients with ++ (moderate effect)” value ([6]; 0.2 mg by mouth, 6 patients) was 0 and the “No. of Patients with +++ (good effect)” value ([6]; 0.2 mg by mouth, 6 patients) was 6. The “No. of Patients with ++++ (maximum effect)” value (“No. of Patients with ++++” for short) ([6]; 0.2 mg by mouth, 6 patients) was 0, the “contraction of the stomach” value ([6]; 0.2 mg, compared with 20 mgs of metoclopramide) was “as rapid and forceful contraction of the stomach as 20 mgs of metoclopramide” and the “No. of Patients with + (no effect)” value ([6]; 1 mg by mouth, 6 patients) was 1. For the same compound, the “No. of Patients with ++ (moderate effect)” value ([6]; 1 mg by mouth, 6 patients) was 2, the “No. of Patients with +++ (good effect)” value ([6]; 1 mg by mouth, 6 patients) was 3 and the “No. of Patients with ++++” value ([6]; 1 mg by mouth, 6 patients) was 0. The “No. of Patients with + (no effect)” value ([6]; 2 mg by mouth, 8 patients) was 0, the “No. of Patients with ++ (moderate effect)” value ([6]; 2 mg by mouth, 8 patients) was 2 and the “No. of Patients with +++ (good effect)” value ([6]; 2 mg by mouth, 8 patients) was 3. For the same compound, the “No. of Patients with ++++” value ([6]; 2 mg by mouth, 8 patients) was 3, the “contraction of the stomach” value [6, 13] was “more forceful contraction than 20 mg of metoclopramide” and the onset of action [6, 13] was “more rapid onset of action”. For the same compound, the “No. of Patients with + (no effect)” value ([6]; 5 mg by mouth, 9 patients) was 0, the “No. of Patients with ++ (moderate effect)” value ([6]; 5 mg by mouth, 9 patients) was 2 and the “No. of Patients with +++ (good effect)” value ([6]; 5 mg by mouth, 9 patients) was 0. The “No. of Patients with ++++” value ([6]; 5 mg by mouth, 9 patients) was 7, the catatonia (catatonia in rats; rat, in words) was “noted in the rat” and the “antiemetic doses compared with those causing catatonia” value (catatonia in rats; rats, Table III) was “exhibits antiemetic activity (anti-apomorphine activity) at doses which are far removed from those causing catatonia”. The TD50 (in vivo) was 47.6 mg/kg and the salivation and tremors (oxotremorine) was “capable of causing salivation and tremors”.
In the case of `COc1cc(N)c(Cl)cc1C(=O)NC1CCN(Cc2ccccc2)CC1` [Compound 2, N-[4'-(1'-benzyl)-piperidyl]-2-methoxy-4-amino-5-chloro-benzamide], the ED50 ([1]; Table I, read-out: ED50 Values) was ~3 mg/kg, the “activity as an anti-emetic” value ([1]; compared with metoclopramide, from Table I) was “more active as an anti-emetic” and the “ability to decrease gastric emptying time, potency” value (gastric emptying) was “potency similar to that of metoclopramide”. The “activity against apomorphine-induced vomiting” value [7] was “high activity”, the ED50 ([7]; Canis lupus familiaris, po, per os, Table II, read-out: ED50 (95% confidence limits), apomorphine induced vomiting) was 0.0435 mg/kg and the “potency relative to metoclopramide” value ([7]; oral route) was “approximately 8 times”. The local anaesthetic potency [8] was “somewhat greater than that of either metoclopramide or procaine”, the anti-convulsant activity ([2]; mouse, in vivo) was “has anti-convulsant activity” and the “inhibition of clonic seizures induced by leptazol” value [9] was “apparently not clonic seizures”. For the same compound, the “inhibition of tonic convulsions (antileptazol)” value [9] was “inhibits tonic convulsions”, the blood pressure [10, 14] was “slight fall” and the heart rate [10, 14] was “slight fall”. The respiratory movements [10, 14] was “slowing of respiratory movements”, the “effects on the cardiovascular and respiratory systems” value ([10]; in vivo) was “weak effects” and the “effect on the autonomic nervous system” value (autonomic nervous system) was “does not have an appreciable effect”. The anti-inflammatory activity (inflammation) was “weak anti-inflammatory activity”, the parasympatholytic activity (parasympathetic system) was “no appreciable parasympatholytic activity” and the N-Debenzylation [4] was “major metabolic reaction”. The “cleavage of the amide bond” value [4] was “does not appear to be a major matabolic reaction”, the extent of metabolism [4] was “extensively metabolized” and the “unchanged drug excreted in the urine” value [4] was “Only very little”. For the same compound, the N-Debenzylation [5] was “major metabolic reaction”, the “cleavage of the amide bond” value [5] was “does not appear to be a major matabolic reaction” and the “conjugation with glucuronic acid and/or sulphate” value [5] was “occurs at a large extent in the rabbit”. The extent of metabolism [5] was “extensively metabolized”, the “unchanged drug excreted in the urine” value [5] was “Only very little” and the side effects [11] was “virtually free of side effects”. For the same compound, the spontaneous motor activity [12] was “inhibit spontaneous motor activity” and the incoordination (incoordination) was “cause incoordination”.
